In patent US11325899B2, “Benzofurane and benzothiophene derivatives as PGE2 receptor modulators” (IDORSIA PHARMACEUTICALS LTD, priority 2017, dated 2022):
pIC50: −log10 of the molar value.

How the values were obtained:
Format in all cases: cell-based
PTGER2 (EP2) = biological target: T1, PTGER2 (EP2) (Homo sapiens, UniProt P43116); test: hEP2 b-arrestin assay (PathHunter HEK 293 PTGER2 b-arrestin cells); details: antagonistic activity, beta-arrestin assay; read-out: hEP2 b-arr IC50
T1 construct: host or cells: HEK 293 (PathHunter PTGER2 b-arrestin cell line)
Summary of the method: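 PathHunter HEK293 cells with ProLink-tagged EP2 and EA-β-arrestin 2 preincubated 15 min at 37 °C with compound (10 μM-2 nM or 1 μM-0.2 nM), then stimulated 120 min with 5 μM PGE2 (EC80). β-gal complementation read by chemiluminescence; IC50 from duplicate dose-response versus DMSO.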

PTGER4 (EP4) = biological target: T2, PTGER4 (EP4) (Homo sapiens, UniProt P35408); test: hEP4 b-arrestin assay (PathHunter HEK 293 PTGER4 b-arrestin cells); details: antagonistic activity, beta-arrestin assay; read-out: hEP4 b-arr IC50
T2 construct: host or cells: HEK 293 (PathHunter PTGER4 b-arrestin cell line)
Summary of the method: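 PathHunter HEK 293 cells expressing ProLink-tagged human EP4 and EA-β-arrestin 2, seeded 24 h before. Compounds (10 μM–2 nM or 1 μM–0.2 nM) preincubated 15 min at 37 °C, then 20 nM PGE2 (EC80) for 120 min at 37 °C. β-gal complementation luminescence read; IC50 from duplicate dose-response curves versus DMSO control.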

EP2 receptor = biological target: T3, EP2 receptor (Homo sapiens, UniProt P43116); test: hEP2 cAMP assay (SF295 glioblastoma cells, HTRF cAMP, PGE2 stimulation); details: antagonistic activity
T3 construct: SF295 glioblastoma cells express high endogenous EP2 and no EP4; host or cells: SF295 glioblastoma cells
Summary of the method: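 SF295 glioblastoma cells with endogenous EP2 and no EP4, in HBSS/HEPES/BSA with 2 mM IBMX, pre-incubated 45 min at room temperature with compound, then stimulated 30 min with 75 nM PGE2 (EC80). cAMP measured by HTRF; IC50 fitted from duplicate % cAMP versus DMSO control.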

T2 sequence (P35408 whole entry): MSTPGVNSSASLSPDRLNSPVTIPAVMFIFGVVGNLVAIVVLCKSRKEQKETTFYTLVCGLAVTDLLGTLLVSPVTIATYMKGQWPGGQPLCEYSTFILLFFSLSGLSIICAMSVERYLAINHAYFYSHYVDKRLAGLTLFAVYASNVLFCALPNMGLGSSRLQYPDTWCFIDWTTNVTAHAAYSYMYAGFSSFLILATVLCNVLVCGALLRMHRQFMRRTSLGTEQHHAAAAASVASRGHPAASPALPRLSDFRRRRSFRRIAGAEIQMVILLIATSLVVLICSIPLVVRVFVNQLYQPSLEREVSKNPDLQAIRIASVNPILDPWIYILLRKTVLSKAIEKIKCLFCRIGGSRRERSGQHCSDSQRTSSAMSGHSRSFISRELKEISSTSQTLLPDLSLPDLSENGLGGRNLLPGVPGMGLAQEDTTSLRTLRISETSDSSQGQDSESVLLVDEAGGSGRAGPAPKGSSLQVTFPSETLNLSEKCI
T1 sequence (P43116 whole entry): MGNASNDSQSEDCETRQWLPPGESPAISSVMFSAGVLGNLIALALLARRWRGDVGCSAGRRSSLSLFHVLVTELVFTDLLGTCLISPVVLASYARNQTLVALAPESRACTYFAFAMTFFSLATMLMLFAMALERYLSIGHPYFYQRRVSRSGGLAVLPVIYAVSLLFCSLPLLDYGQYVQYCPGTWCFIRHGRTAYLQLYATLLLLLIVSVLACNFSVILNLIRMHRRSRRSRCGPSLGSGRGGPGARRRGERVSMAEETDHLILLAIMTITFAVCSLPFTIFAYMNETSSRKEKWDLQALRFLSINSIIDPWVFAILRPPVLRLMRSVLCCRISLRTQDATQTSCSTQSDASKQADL
T3 sequence (P43116 whole entry): as above

| SMILES | pIC50 (PTGER2 (EP2)) | pIC50 (PTGER4 (EP4)) | pIC50 (EP2 receptor) |
| --- | --- | --- | --- |
| Cc1cc(-c2cc(NCCc3c(C)oc4c(C)cc(F)cc34)ncn2)sc1C(=O)O [Example 2, 5-{6-[2-(5-Fluoro-2,7-dimethyl-benzofuran-3-yl)-ethylamino]-pyrimidin-4-yl}-3-methyl-thiophene-2-carboxylic acid] | 7.60 | 6.72 | 7.64 |
| Cc1cc(-c2cc(NCCc3c(C)sc4c(C)cccc34)ncn2)sc1C(=O)O [Example 3, 5-{6-[2-(2,7-Dimethyl-benzo[b]thiophen-3-yl)-ethylamino]-pyrimidin-4-yl}-3-methyl-thiophene-2-carboxylic acid] | 7.74 | 6.69 | 7.74 |
| Cc1cc(-c2cc(NCCc3c(C)oc4c(C)cc(Cl)cc34)ncn2)sc1C(=O)O [Example 4, 5-{6-[2-(5-Chloro-2,7-dimethyl-benzofuran-3-yl)-ethylamino]-pyrimidin-4-yl}-3-methyl-thiophene-2-carboxylic acid] | 7.96 | 6.58 | 7.48 |
| CSc1cc(-c2cc(NCCc3c(C)sc4c(C)cccc34)ncn2)ccc1C(=O)O [Example 14, 4-{6-[2-(2,7-Dimethyl-benzo[b]thiophen-3-yl)-ethylamino]-pyrimidin-4-yl}-2-methylsulfanyl-benzoic acid] | 8.40 | 6.71 | 8.22 |
| COc1ccc(Cl)c2c(CCNc3cc(-c4ccc(C(=O)O)c(SC)c4)ncn3)c(C)sc12 [Example 15, 4-{6-[2-(4-Chloro-7-methoxy-2-methyl-benzo[b]thiophen-3-yl)-ethylamino]-pyrimidin-4-yl}-2-methylsulfanyl-benzoic acid] | 8.22 | 6.77 | 7.68 |
| CSc1cc(-c2cc(NCCc3c(C)oc4c(C)cc(F)cc34)ncn2)ccc1C(=O)O [Example 16, 4-{6-[2-(5-Fluoro-2,7-dimethyl-benzofuran-3-yl)-ethylamino]-pyrimidin-4-yl}-2-methylsulfanyl-benzoic acid] | 7.89 | 6.41 | 7.68 |
| CSc1cc(-c2cc(NCCc3c(C)sc4c(C)cc(F)cc34)ncn2)ccc1C(=O)O [Example 17, 4-{6-[2-(5-Fluoro-2,7-dimethyl-benzo[b]thiophen-3-yl)-ethylamino]-pyrimidin-4-yl}-2-methylsulfanyl-benzoic acid] | 8.30 | 6.61 | 8.05 |
| CSc1cc(-c2cc(NCCc3c(C)oc4ccccc34)ncn2)ccc1C(=O)O [Example 18, 4-{6-[2-(2-Methyl-benzofuran-3-yl)-ethylamino]-pyrimidin-4-yl}-2-methylsulfanyl-benzoic acid] | 9.00 | 5.92 | 9.00 |
| CSc1cc(-c2cc(NCCc3c(C)sc4c(C)ccc(Cl)c34)ncn2)ccc1C(=O)O [Example 19, 4-{6-[2-(4-Chloro-2,7-dimethyl-benzo[b]thiophen-3-yl)-ethylamino]-pyrimidin-4-yl}-2-methylsulfanyl-benzoic acid] | 7.92 | 6.38 | 7.08 |
| CSc1cc(-c2cc(NCCc3c(C)sc4c(Cl)ccc(Cl)c34)ncn2)ccc1C(=O)O [Example 20, 4-{6-[2-(4,7-Dichloro-2-methyl-benzo[b]thiophen-3-yl)-ethylamino]-pyrimidin-4-yl}-2-methylsulfanyl-benzoic acid] | 7.52 | 6.12 | 7.59 |
| CSc1cc(-c2cc(NCCc3c(C)sc4c(C)c(F)ccc34)ncn2)ccc1C(=O)O [Example 21, 4-{6-[2-(6-Fluoro-2,7-dimethyl-benzo[b]thiophen-3-yl)-ethylamino]-pyrimidin-4-yl}-2-methylsulfanyl-benzoic acid] | 8.40 | 6.55 | 7.62 |
| CCc1oc2c(C)cc(F)cc2c1CCNc1cc(-c2ccc(C(=O)O)c(SC)c2)ncn1 [Example 22, 4-{6-[2-(2-Ethyl-5-fluoro-7-methyl-benzofuran-3-yl)-ethylamino]-pyrimidin-4-yl}-2-methylsulfanyl-benzoic acid] | 7.00 | 6.31 | 6.76 |
| CSc1cc(-c2cc(NCCc3c(C)sc4c(Cl)cc(F)cc34)ncn2)ccc1C(=O)O [Example 23, 4-{6-[2-(7-Chloro-5-fluoro-2-methyl-benzo[b]thiophen-3-yl)-ethylamino]-pyrimidin-4-yl}-2-methylsulfanyl-benzoic acid] | 8.05 | 6.31 | 7.57 |
| CSc1cc(-c2cc(NCCc3c(C)sc4ccccc34)ncn2)ccc1C(=O)O [Example 24, 4-{6-[2-(2-Methyl-benzo[b]thiophen-3-yl)-ethylamino]-pyrimidin-4-yl}-2-methylsulfanyl-benzoic acid] | 8.52 | 5.47 | 8.40 |
| CCOc1cc(-c2cc(NCCc3c(C)sc4c(C)ccc(F)c34)ncn2)sc1C(=O)O [Example 25, 3-Ethoxy-5-{6-[2-(4-fluoro-2,7-dimethyl-benzo[b]thiophen-3-yl)-ethylamino]-pyrimidin-4-yl}-thiophene-2-carboxylic acid] | 8.70 | 8.15 | 8.10 |
| CCOc1cc(-c2cc(NCCc3c(C)sc4c(OC)ccc(F)c34)ncn2)sc1C(=O)O [Example 28, 3-Ethoxy-5-{6-[2-(4-fluoro-7-methoxy-2-methyl-benzo[b]thiophen-3-yl)-ethylamino]-pyrimidin-4-yl}-thiophene-2-carboxylic acid] | 8.70 | 8.30 | 7.96 |
| CCOc1cc(-c2cc(NCCc3c(C)sc4c(C)ccc(Cl)c34)ncn2)sc1C(=O)O [Example 29, 5-{6-[2-(4-Chloro-2,7-dimethyl-benzo[b]thiophen-3-yl)-ethylamino]-pyrimidin-4-yl}-3-ethoxy-thiophene-2-carboxylic acid] | 7.85 | 7.60 | 7.85 |
| CCOc1cc(-c2cc(NCCc3c(C)sc4c(OC)ccc(Cl)c34)ncn2)sc1C(=O)O [Example 30, 5-{6-[2-(4-Chloro-7-methoxy-2-methyl-benzo[b]thiophen-3-yl)-ethylamino]-pyrimidin-4-yl}-3-ethoxy-thiophene-2-carboxylic acid] | 8.00 | 7.74 | 8.10 |
| CCOc1cc(-c2cc(NCCc3c(C)oc4c(OC)cc(F)c(F)c34)ncn2)sc1C(=O)O [Example 31, 5-{6-[2-(4,5-Difluoro-7-methoxy-2-methyl-benzofuran-3-yl)-ethylamino]-pyrimidin-4-yl}-3-ethoxy-thiophene-2-carboxylic acid] | 7.96 | 7.57 | 8.00 |
| CCOc1cc(-c2cc(NCCc3c(C)sc4c(C)cc(F)cc34)ncn2)sc1C(=O)O [Example 32, 3-Ethoxy-5-{6-[2-(5-fluoro-2,7-dimethyl-benzo[b]thiophen-3-yl)-ethylamino]-pyrimidin-4-yl}-thiophene-2-carboxylic acid] | 8.70 | 7.80 | 8.70 |
| CCOc1cc(-c2cc(NCCc3csc4ccccc34)ncn2)sc1C(=O)O [Example 33, 5-[6-(2-Benzo[b]thiophen-3-yl-ethylamino)-pyrimidin-4-yl]-3-ethoxy-thiophene-2-carboxylic acid] | 7.72 | 6.77 | 7.77 |
| CCOc1cc(-c2cc(NCCc3c(C)oc4c(OC)ccc(F)c34)ncn2)sc1C(=O)O [Example 34, 3-Ethoxy-5-{6-[2-(4-fluoro-7-methoxy-2-methyl-benzofuran-3-yl)-ethylamino]-pyrimidin-4-yl}-thiophene-2-carboxylic acid] | 8.22 | 7.92 | 8.22 |
| CCOc1cc(-c2cc(NCCc3c(C)oc4c(Cl)cccc34)ncn2)sc1C(=O)O [Example 35, 5-{6-[2-(7-Chloro-2-methyl-benzofuran-3-yl)-ethylamino]-pyrimidin-4-yl}-3-ethoxy-thiophene-2-carboxylic acid] | 8.52 | 7.46 | 8.70 |
| CCOc1cc(-c2cc(NCCc3c(C)sc4c(C)cccc34)ncn2)sc1C(=O)O [Example 36, 5-{6-[2-(2,7-Dimethyl-benzo[b]thiophen-3-yl)-ethylamino]-pyrimidin-4-yl}-3-ethoxy-thiophene-2-carboxylic acid] | 9.00 | 7.59 | 8.40 |
| CCOc1cc(-c2cc(NCCc3c(C)oc4c(C)cc(F)cc34)ncn2)sc1C(=O)O [Example 37, 3-Ethoxy-5-{6-[2-(5-fluoro-2,7-dimethyl-benzofuran-3-yl)-ethylamino]-pyrimidin-4-yl}-thiophene-2-carboxylic acid] | 8.70 | 7.38 | 8.70 |
| CCOc1cc(-c2cc(NCCc3c(C)oc4c(OC)cc(Cl)cc34)ncn2)sc1C(=O)O [Example 38, 5-{6-[2-(5-Chloro-7-methoxy-2-methyl-benzofuran-3-yl)-ethylamino]-pyrimidin-4-yl}-3-ethoxy-thiophene-2-carboxylic acid] | 8.05 | 7.92 | 7.92 |
